Settings: for mass density / electrical conductivity / viscosity: 101.33 kPa; for mass density / electrical conductivity / surface tension liquid-gas / viscosity: Liquid; for electrical conductivity: MP522 conductivity meter; for surface tension liquid-gas: Maximal bubble pressure; for viscosity: Capillary tube (Ostwald / Ubbelohde) method

CCCC[n+]1cccc(C)c1.O=S(=O)([N-]S(=O)(=O)C(F)(F)F)C(F)(F)F
Settings	electrical conductivity [S/m]	mass density [kg/m3]	surface tension liquid-gas [mN/m]	viscosity [mPa·s]
278.15 K	0.1	1439.9	–	–
283.15 K	0.132	1435.7	29.2	–
288.15 K	0.172	1431.5	28.8	–
293.15 K	0.217	1427.1	28.4	–
298.15 K	0.272	1422.6	28.2	63.2
303.15 K	0.335	1418.3	27.8	51.1
308.15 K	0.409	1414.2	27.4	41.4
313.15 K	0.49	1409.8	27.2	34
318.15 K	0.576	1405.1	26.7	28.4
323.15 K	0.69	1400.7	26.4	23.9
328.15 K	0.796	1396.4	26.1	20.3
333.15 K	0.91	1392.1	25.8	17.5
338.15 K	1.03	1387.6	25.4	15.2
343.15 K	1.16	–	–	13
348.15 K	1.3	–	–	11.3
353.15 K	1.44	–	–	10

Settings	Glass transition temperature [°C]
Glass, DTA	-82.3

— the NIST ThermoML archive (doi:10.1021/je300153f)
